Legend:
[1] = tested on: A549 cells; assay: Proliferation Assay (A549 cell viability, Cell Titer Fluor); format: cell-based; conditions: Homo sapiens, 72 hours
Method: A549 cells were routinely maintained in RPMI 1640 media (Gibco catalog number 11875-093) supplemented with 10% dialyzed fetal bovine serum using a humidified incubator (37° C., 5% CO2 and ambient O2). In preparation for the viability assay, cells were inoculated into 384-well black CulturPlates (Perkin Elmer) at a density of 1000 cells/well in a volume of 40 uL. Following a 24-hour incubation at 37° C., 5% CO2 and ambient O2, cells were treated with compound (10 uL) in a final DMSO concentration of 0.5% (v/v). The microplates were then incubated for 72 hours (37° C., 5% CO2 and ambient O2). Cell Titer Fluor (Promega) was subsequently added (10 uL of 6× reagent) and mixed for 15 minutes at room temperature. The plates were then incubated for 30 minutes (37° C., 5% CO2 and ambient O2) and fluorescence was subsequently read on the Perkin Elmer Envision plate reader. EC50 values were calculated using a four-parameter logistic curve fit.

[2] = target: T1, purified recombinant human GAC (GLS1) (Homo sapiens, UniProt O94925); assay: GLS1 Enzymatic Activity Assay (dual-coupled enzymatic assay); format: biochemical
T1 sequence (O94925 55-598 isoform O94925-3 limits assumed): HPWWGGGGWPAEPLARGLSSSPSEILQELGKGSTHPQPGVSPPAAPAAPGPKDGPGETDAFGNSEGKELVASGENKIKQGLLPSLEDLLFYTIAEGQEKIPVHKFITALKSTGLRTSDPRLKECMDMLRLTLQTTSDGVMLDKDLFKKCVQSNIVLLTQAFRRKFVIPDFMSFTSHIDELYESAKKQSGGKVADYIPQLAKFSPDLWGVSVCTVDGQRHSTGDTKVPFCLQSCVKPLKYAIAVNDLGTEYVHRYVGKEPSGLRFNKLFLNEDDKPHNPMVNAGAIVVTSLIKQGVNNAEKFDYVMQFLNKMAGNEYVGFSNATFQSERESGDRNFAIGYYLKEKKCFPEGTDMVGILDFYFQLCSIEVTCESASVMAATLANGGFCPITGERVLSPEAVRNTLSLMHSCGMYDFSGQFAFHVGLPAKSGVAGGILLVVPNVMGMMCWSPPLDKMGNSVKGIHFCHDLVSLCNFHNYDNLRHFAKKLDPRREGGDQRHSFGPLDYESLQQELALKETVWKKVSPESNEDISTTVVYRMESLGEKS
Method: GLS1 Enzymatic Activity Assay
The inhibition of purified recombinant human GAC by varying concentrations of inhibitors is assessed via a dual-coupled enzymatic assay. The glutamate produced by the glutaminase reaction is used by glutamate oxidase to produce α-ketoglutarate, ammonia, and hydrogen peroxide, with this hydrogen peroxide subsequently being used by horseradish peroxidase to produce resorufin in the presence of Amplex UltraRed. The assay buffer consisted of 50 mM Hepes (pH 7.4), 0.25 mM EDTA and 0.1 mM Triton X-100. GAC was incubated with potassium phosphate (10 minutes at room temperature) prior to incubation with inhibitor (10 minutes at room temperature). The final reaction conditions were as follows: 2 nM GAC, 50 mM potassium phosphate, 100 mU/mL glutamate oxidase (Sigma), 1 mM glutamine (Sigma), 100 mU/mL horseradish peroxidase (Sigma), 75 μM Amplex UltraRed (Life Technologies), and 1% (v/v) DMSO. The production of resorufin was monitored on a Perkin Elmer Envision plate reader (excitation 530 nm, emission 590 nm) either in a kinetics or endpoint mode (at 20 minutes). IC50 values were calculated using a four-parameter logistic curve fit.

Row | EC50 [1] [µM] | IC50 [2] [µM] | Compound
1 | 0.1 to 0.5 | < 0.1 | Cc1ccc(CNC(=O)c2cn(CCCCc3cc4c(Br)c(C5CC5)[nH]c4nn3)nn2)cn1 [Example 18, 1-(4-(5-Bromo-6-cyclopropyl-7H-pyrrolo[2,3-c]pyridazin-3-yl)butyl)-N-((6-methylpyridin-3-yl)methyl)-1H-1,2,3-triazole-4-carboxamide 2,2,2-trifluoroacetate]
2 | 0.5 to 5 | < 0.1 | Cc1ccc(CNC(=O)c2cn(CCCCc3cc4c(Cl)c(C5CC5)[nH]c4nn3)nn2)cn1 [Example 19, 1-(4-(5-Chloro-6-cyclopropyl-7H-pyrrolo[2,3-c]pyridazin-3-yl)butyl)-N-((6-methylpyridin-3-yl)methyl)-1H-1,2,3-triazole-4-carboxamide 2,2,2-trifluoroacetate]
3 | > 5 | 0.5 to 5 | O=C(NCc1ccccn1)c1cn(CCCCc2cc3c(-c4ccccc4)c[nH]c3nn2)nn1 [Example 20, 1-(4-(5-phenyl-7H-pyrrolo[2,3-c]pyridazin-3-yl)butyl)-N-(pyridin-2-ylmethyl)-1H-1,2,3-triazole-4-carboxamide]
4 | > 5 | 0.1 to 0.5 | O=C(NCc1ccccn1)c1cn(CCCCc2cc3cc(C4(O)COC4)[nH]c3nn2)nn1 [Example 21, 1-(4-(6-(3-hydroxyoxetan-3-yl)-7H-pyrrolo[2,3-c]pyridazin-3-yl)butyl)-N-(pyridin-2-ylmethyl)-1H-1,2,3-triazole-4-carboxamide]
5 | > 5 | 0.1 to 0.5 | O=C(Cc1ccccc1)Nc1nnc(CCCCc2cnc3[nH]ccc3c2)s1 [Example 24, N-(5-(4-(1H-pyrrolo[2,3-b]pyridin-5-yl)butyl)-1,3,4-thiadiazol-2-yl)-2-phenylacetamide]
6 | 0.1 to 0.5 | < 0.1 | O=C(Cc1ccccn1)Nc1nnc(CCCCc2cc3cc(Cc4ccccc4)[nH]c3nn2)s1 [Example 26, N-[5-(4-{6-benzyl-7H-pyrrolo[2,3-c]pyridazin-3-yl}butyl)-1,3,4-thiadiazol-2-yl]-2-(pyridin-2-yl)acetamide]
7 | 0.5 to 5 | 0.1 to 0.5 | O=C(NCc1cccc(OC(F)(F)F)c1)c1cn(CCCCc2cc3cc[nH]c3nn2)nn1 [Example 27, 1-(4-{7H-pyrrolo[2,3-c]pyridazin-3-yl}butyl)-N-{[3-(trifluoromethoxy)phenyl]methyl}-1H-1,2,3-triazole-4-carboxamide]
8 | 0.1 to 0.5 | 0.5 to 5 | CC(C)Cc1cc2cc(CCCCn3cc(C(=O)NCc4ccccn4)nn3)nnc2[nH]1 [Example 28, 1-{4-[6-(2-methylpropyl)-7H-pyrrolo[2,3-c]pyridazin-3-yl]butyl}-N-(pyridin-2-ylmethyl)-1H-1,2,3-triazole-4-carboxamide]
9 | 0.5 to 5 | 0.1 to 0.5 | O=C(Cc1ccccc1)Nc1ccn(CCCCc2cc3cc(C4CC4)[nH]c3nn2)c(=O)c1 [Example 29, N-[1-(4-{6-cyclopropyl-7H-pyrrolo[2,3-c]pyridazin-3-yl}butyl)-2-oxo-1,2-dihydropyridin-4-yl]-2-phenylacetamide]
10 | 0.5 to 5 | 0.1 to 0.5 | CC(C)(C)c1cc2cc(CCCCn3ccc(NC(=O)Cc4ccccc4)cc3=O)nnc2[nH]1 [Example 30, N-[1-(4-{6-tert-butyl-7H-pynolo[2,3-c]pyridazin-3-yl}butyl)-2-oxo-1,2-dihydropyridin-4-yl]-2-phenylacetamide]
11 | 0.1 to 0.5 | < 0.1 | O=C(NCc1cccc(OC(F)(F)F)c1)c1cn(CCCCc2cc3cc(C4CC4)[nH]c3nn2)nn1 [Example 32, 1-(4-{6-cyclopropyl-7H-pyrrolo[2,3-c]pyridazin-3-yl}butyl)-N-{[3-(trifluoromethoxy)phenyl]methyl}-1H-1,2,3-triazole-4-carboxamide]
12 | 0.5 to 5 | 0.1 to 0.5 | COc1cccc(CNC(=O)c2cn(CCCCc3cc4cc(C5CC5)[nH]c4nn3)nn2)n1 [Example 33, 1-(4-{6-cyclopropyl-7H-pyrrolo[2,3-c]pyridazin-3-yl}butyl)-N-[(6-methoxypyridin-2-yl)methyl]-1H-1,2,3-triazole-4-carboxamide]
13 | 0.5 to 5 | < 0.1 | O=C(NCc1ccccn1)c1cn(CCCCc2cc3cc(Cc4ccccc4)[nH]c3nn2)nn1 [Example 34, 1-(4-{6-benzyl-7H-pyrrolo[2,3-c]pyridazin-3-yl}butyl)-N-(pyridin-2-ylmethyl)-1H-1,2,3-triazole-4-carboxamide]
14 | 0.1 to 0.5 | < 0.1 | Cc1ccc(CNC(=O)c2cn(CCCCc3cc4cc(C5CC5)[nH]c4nn3)nn2)cn1 [Example 35, 1-(4-{6-cyclopropyl-7H-pyrrolo[2,3-c]pyridazin-3-yl}butyl)-N-[(6-methylpyridin-3-yl)methyl]-1H-1,2,3-triazole-4-carboxamide]
15 | 0.1 to 0.5 | 0.1 to 0.5 | O=C(NCc1cccnc1)c1cn(CCCCc2cc3cc(C4CC4)[nH]c3nn2)nn1 [Example 36, 1-(4-{6-cyclopropyl-7H-pyrrolo[2,3-c]pyridazin-3-yl}butyl)-N-(pyridin-3-ylmethyl)-1H-1,2,3-triazole-4-carboxamide]
16 | 0.5 to 5 | 0.1 to 0.5 | O=C(NCc1ccncc1)c1cn(CCCCc2cc3cc(C4CC4)[nH]c3nn2)nn1 [Example 37, 1-(4-{6-cyclopropyl-7H-pyrrolo[2,3-c]pyridazin-3-yl}butyl)-N-(pyridin-4-ylmethyl)-1H-1,2,3-triazole-4-carboxamide]
17 | 0.5 to 5 | 0.5 to 5 | O=C(NCc1ncccn1)c1cn(CCCCc2cc3cc(C4CC4)[nH]c3nn2)nn1 [Example 38, 1-(4-{6-cyclopropyl-7H-pyrrolo[2,3-c]pyridazin-3-yl}butyl)-N-(pyrimidin-2-ylmethyl)-1H-1,2,3-triazole-4-carboxamide]
18 | 0.1 to 0.5 | 0.1 to 0.5 | COc1ccnc(CNC(=O)c2cn(CCCCc3cc4cc(C5CC5)[nH]c4nn3)nn2)c1 [Example 39, 1-(4-{6-cyclopropyl-7H-pyrrolo[2,3-c]pyridazin-3-yl}butyl)-N-[(4-methoxypyridin-2-yl)methyl]-1H-1,2,3-triazole-4-carboxamide]
19 | 0.5 to 5 | < 0.1 | O=C(NCc1ccc(C(F)(F)F)nc1)c1cn(CCCCc2cc3cc(C4CC4)[nH]c3nn2)nn1 [Example 40, 1-(4-{6-cyclopropyl-7H-pyrrolo[2,3-c]pyridazin-3-yl}butyl)-N-{[6-(trifluoromethyl)pyridin-3-yl]methyl}-1H-1,2,3-triazole-4-carboxamide]
20 | 0.5 to 5 | 0.1 to 0.5 | O=C(NCc1ccc(Cl)nc1)c1cn(CCCCc2cc3cc(C4CC4)[nH]c3nn2)nn1 [Example 41, N-[(6-chloropyridin-3-yl)methyl]-1-(4-{6-cyclopropyl-7H-pyrrolo[2,3-c]pyridazin-3-yl}butyl)-1H-1,2,3-triazole-4-carboxamide]
21 | 0.5 to 5 | < 0.1 | COc1ccc(CNC(=O)c2cn(CCCCc3cc4cc(C5CC5)[nH]c4nn3)nn2)cn1 [Example 42, 1-(4-{6-cyclopropyl-7H-pyrrolo[2,3-c]pyridazin-3-yl}butyl)-N-[(6-methoxypyridin-3-yl)methyl]-1H-1,2,3-triazole-4-carboxamide]
22 | 0.5 to 5 | < 0.1 | O=C(NCc1cccc(OCC(F)(F)F)n1)c1cn(CCCCc2cc3cc(C4CC4)[nH]c3nn2)nn1 [Example 43, 1-(4-{6-cyclopropyl-7H-pyrrolo[2,3-c]pyridazin-3-yl}butyl)-N-{[6-(2,2,2-trifluoroethoxy)pyridin-2-yl]methyl}-1H-1,2,3-triazole-4-carboxamide]
23 | 0.5 to 5 | 0.1 to 0.5 | COc1cc(CNC(=O)c2cn(CCCCc3cc4cc(C5CC5)[nH]c4nn3)nn2)ccn1 [Example 44, 1-(4-{6-cyclopropyl-7H-pyrrolo[2,3-c]pyridazin-3-yl}butyl)-N-[(2-methoxypyridin-4-yl)methyl]-1H-1,2,3-triazole-4-carboxamide]
